Laboratory results published in patent US20230126447A1, “OCULAR DRUG DEPOT FOR COMPLEMENT-MEDIATED DISORDERS” (priority 2020, published 2023).
Several values for one entry are separate records, joined by “and”; a condition that tells them apart may be missing. Equal entries are not always repeated. Where two headings read alike, the source gives them in different places.

Test: Ocular tissue and plasma pharmacokinetics, 50 mg/kg BID oral, Dutch Belted rabbits (Example 4/5)
Type: in vivo
Conditions: for concentration at 96 h / concentration at 168 h / concentration at 0 h / concentration at 1 h / concentration at 6 h / concentration at 24 h / concentration at 240 h: 50 mg/kg
Method: Study design, including group designation and dose levels, are outlined in Table 15. […] Two Dutch Belted rabbits received vehicle only oral gavage doses for tolerability assessment. […] The dose volume was 5 mL/kg/dose for all groups. Safety was assessed with toxicological and ophthalmic examinations, including slit lamp biomicroscopy, indirect ophthalmoscopy, rebound tonometry, and ultrasonic corneal pachymetry.
For the pharmacokinetic determination, a single blood sample was taken from each rabbit from Groups 1 and 4 at one hour post-dose on Day 15, Group 2 at one hour post-dose on Day 8, and Group 3 at pre-dose, 1, 6, 24, 96, 168, and 240 hours post-dose on Day 15, with the eyes collected at the same time as blood sampling. Plasma, vitreous humor (VH), retina, choroid-retina pigmented epithelium (Choroid-RPE), optic nerve (ON), and iris-ciliary body (I-CB) were analyzed by LC-MS/MS to quantify test article concentrations. The lower limit of quantitation (LLOQ) in plasma and vitreous humor was 1.0 ng/mL. The LLOQ was 6.0 ng/g in retina, choroid-RPE, and I-CB and the optic nerve LLOQ was 15 ng/g, assuming tissue density of 1 g/mL where relevant. […]

[1] = male, Dutch Belted, po, Iris-Ciliary Body, DB rabbit, 50 mg/kg BID, Day 15
[2] = male, Dutch Belted, po, Optic Nerve, DB rabbit, 50 mg/kg BID, Day 15
[3] = male, Dutch Belted, po, Plasma, DB rabbit, 50 mg/kg BID, Day 15
[4] = male, Dutch Belted, po, Retina, DB rabbit, 50 mg/kg BID, Day 15
[5] = male, Dutch Belted, po, Vitreous Humor, DB rabbit, 50 mg/kg BID, Day 15

**Q.** Which Tmax [1] does the source give for CC(=O)c1nn(CC(=O)N2C[C@H](F)C[C@H]2C(=O)Nc2cccc(Br)n2)c2ccc(-c3cnc(C)nc3)cc12 [Compound 1, (2S,4R)-1-(2-(3-Acetyl-5-(2-methylpyrimidin-5-yl)-1H-indazol-1-yl)acetyl)-N-(6-bromopyridin-2-yl)-4-fluoropyrrolidine-2-carboxamide] here?
**A.** 1 h

**Q.** What about the half-life [1] of the same molecule?
**A.** 178 h

**Q.** What about the Cmax [2] of the same molecule?
**A.** 1550 ng/g

**Q.** What about the MRT last [2] of the same molecule?
**A.** 4.79 h

**Q.** And the Tmax [2]?
**A.** 1 h

**Q.** And the half-life [2]?
**A.** 7.82 h

**Q.** And the AUC(0-inf) [3]?
**A.** 10100 ng·h/mL

**Q.** And the Cmax [3]?
**A.** 2900 ng/mL

**Q.** And the MRT last [3]?
**A.** 4.73 h

**Q.** And the Tmax [3]?
**A.** 1 h

**Q.** And the half-life [3]?
**A.** 5.98 h

**Q.** And the AUC(0-t) (male, Dutch Belted, po, Plasma, DB rabbit, 50 mg/kg BID, Day 15, read-out: AUC0-t)?
**A.** 9790 ng·h/mL

**Q.** And the Cmax [4]?
**A.** 2120 ng/g

**Q.** What about the MRT last [4] of the same molecule?
**A.** 53.2 h

**Q.** What about the Tmax [4] of the same molecule?
**A.** 1 h

**Q.** And the half-life [4]?
**A.** 96.1 h

**Q.** And the Cmax [5]?
**A.** 49.2 ng/g and 49.2 ng/mL

**Q.** What about the MRT last [5] of the same molecule?
**A.** 7.27 h

**Q.** What about the Tmax [5] of the same molecule?
**A.** 1 h

**Q.** And the half-life [5]?
**A.** 5.44 h

**Q.** And the AUC(0-t) (male, Dutch Belted, po, Vitreous Humor, DB rabbit, 50 mg/kg BID, Day 15, read-out: AUClast)?
**A.** 419 ng·h/mL

**Q.** And the concentration at 96 h (male, Dutch Belted, rabbit, choroid-RPE, oral, DB rabbits, Day 15, 50 mg/kg BID, 96 hr, read-out: Mean Choroid-RPE Concentration)?
**A.** 873 ng/g

**Q.** What about the concentration at 168 h (male, Dutch Belted, rabbit, choroid-RPE, oral, DB rabbits, Day 15, 50 mg/kg BID, 168 hr, read-out: Mean Choroid-RPE Concentration) of the same molecule?
**A.** 645 ng/g

**Q.** And the concentration at 0 h (male, Dutch Belted, rabbit, choroid-RPE, po, DB rabbit, 50 mg/kg BID oral, Day 15, 0 h, read-out: Mean Choroid-RPE concentration)?
**A.** 3920 ng/g

**Q.** What about the concentration at 1 h (male, Dutch Belted, rabbit, choroid-RPE, po, DB rabbit, 50 mg/kg BID oral, Day 15, 1 h, read-out: Mean Choroid-RPE concentration) of the same molecule?
**A.** 8020 ng/g

**Q.** And the concentration at 6 h (male, Dutch Belted, rabbit, choroid-RPE, po, DB rabbit, 50 mg/kg BID oral, Day 15, 6 h, read-out: Mean Choroid-RPE concentration)?
**A.** 4370 ng/g

**Q.** And the concentration at 24 h (male, Dutch Belted, rabbit, choroid-RPE, po, DB rabbit, 50 mg/kg BID oral, Day 15, 24 h, read-out: Mean Choroid-RPE concentration)?
**A.** 2100 ng/g

**Q.** What about the concentration at 240 h (male, Dutch Belted, rabbit, choroid-RPE, po, DB rabbit, 50 mg/kg BID oral, Day 15, 240 h, read-out: Mean Choroid-RPE concentration) of the same molecule?
**A.** 194 ng/g

**Q.** And the concentration at 0 h (male, Dutch Belted, rabbit, iris-ciliary body, po, DB rabbit, 50 mg/kg BID oral, Day 15, 0 h, read-out: Mean Iris-Ciliary Body concentration)?
**A.** 5080 ng/g

**Q.** And the concentration at 1 h (male, Dutch Belted, rabbit, iris-ciliary body, po, DB rabbit, 50 mg/kg BID oral, Day 15, 1 h, read-out: Mean Iris-Ciliary Body concentration)?
**A.** 11500 ng/g

**Q.** What about the concentration at 6 h (male, Dutch Belted, rabbit, iris-ciliary body, po, DB rabbit, 50 mg/kg BID oral, Day 15, 6 h, read-out: Mean Iris-Ciliary Body concentration) of the same molecule?
**A.** 8820 ng/g

**Q.** And the concentration at 24 h (male, Dutch Belted, rabbit, iris-ciliary body, po, DB rabbit, 50 mg/kg BID oral, Day 15, 24 h, read-out: Mean Iris-Ciliary Body concentration)?
**A.** 5560 ng/g

**Q.** And the concentration at 96 h (male, Dutch Belted, rabbit, iris-ciliary body, po, DB rabbit, 50 mg/kg BID oral, Day 15, 96 h, read-out: Mean Iris-Ciliary Body concentration)?
**A.** 2840 ng/g

**Q.** And the concentration at 168 h (male, Dutch Belted, rabbit, iris-ciliary body, po, DB rabbit, 50 mg/kg BID oral, Day 15, 168 h, read-out: Mean Iris-Ciliary Body concentration)?
**A.** 2290 ng/g

**Q.** What about the concentration at 240 h (male, Dutch Belted, rabbit, iris-ciliary body, po, DB rabbit, 50 mg/kg BID oral, Day 15, 240 h, read-out: Mean Iris-Ciliary Body concentration) of the same molecule?
**A.** 1620 ng/g

**Q.** And the concentration at 0 h (male, Dutch Belted, rabbit, optic nerve, po, DB rabbit, 50 mg/kg BID oral, Day 15, 0 h, read-out: Optic Nerve concentration)?
**A.** 45.3 ng/g

**Q.** And the concentration at 1 h (male, Dutch Belted, rabbit, optic nerve, po, DB rabbit, 50 mg/kg BID oral, Day 15, 1 h, read-out: Optic Nerve concentration)?
**A.** 1550 ng/g

**Q.** And the concentration at 6 h (male, Dutch Belted, rabbit, optic nerve, po, DB rabbit, 50 mg/kg BID oral, Day 15, 6 h, read-out: Optic Nerve concentration)?
**A.** 133 ng/g

**Q.** What about the concentration at 24 h (male, Dutch Belted, rabbit, optic nerve, po, DB rabbit, 50 mg/kg BID oral, Day 15, 24 h, read-out: Optic Nerve concentration) of the same molecule?
**A.** 27 ng/g

**Q.** And the concentration at 0 h (male, Dutch Belted, rabbit, plasma, po, DB rabbit, 50 mg/kg BID oral, Day 15, 0 h, read-out: Mean plasma concentration)?
**A.** 104 ng/mL

**Q.** And the concentration at 1 h (male, Dutch Belted, rabbit, plasma, po, DB rabbit, 50 mg/kg BID oral, Day 15, 1 h, read-out: Mean plasma concentration)?
**A.** 2900 ng/mL

**Q.** What about the concentration at 6 h (male, Dutch Belted, rabbit, plasma, po, DB rabbit, 50 mg/kg BID oral, Day 15, 6 h, read-out: Mean plasma concentration) of the same molecule?
**A.** 320 ng/mL

**Q.** And the concentration at 24 h (male, Dutch Belted, rabbit, plasma, po, DB rabbit, 50 mg/kg BID oral, Day 15, 24 h, read-out: Mean plasma concentration)?
**A.** 39.9 ng/mL

**Q.** And the concentration at 0 h (male, Dutch Belted, rabbit, retina, oral, DB rabbits, Day 15, 50 mg/kg BID, 0 hr, read-out: Mean Retina Concentration)?
**A.** 159 ng/g

**Q.** And the concentration at 1 h (male, Dutch Belted, rabbit, retina, oral, DB rabbits, Day 15, 50 mg/kg BID, 1 hr, read-out: Mean Retina Concentration)?
**A.** 2120 ng/g

**Q.** And the concentration at 6 h (male, Dutch Belted, rabbit, retina, oral, DB rabbits, Day 15, 50 mg/kg BID, 6 hr, read-out: Mean Retina Concentration)?
**A.** 725 ng/g

**Q.** And the concentration at 24 h (male, Dutch Belted, rabbit, retina, oral, DB rabbits, Day 15, 50 mg/kg BID, 24 hr, read-out: Mean Retina Concentration)?
**A.** 265 ng/g

**Q.** What about the concentration at 96 h (male, Dutch Belted, rabbit, retina, oral, DB rabbits, Day 15, 50 mg/kg BID, 96 hr, read-out: Mean Retina Concentration) of the same molecule?
**A.** 32.3 ng/g

**Q.** And the concentration at 168 h (male, Dutch Belted, rabbit, retina, oral, DB rabbits, Day 15, 50 mg/kg BID, 168 hr, read-out: Mean Retina Concentration)?
**A.** 54.9 ng/g

**Q.** What about the concentration at 240 h (male, Dutch Belted, rabbit, retina, oral, DB rabbits, Day 15, 50 mg/kg BID, 240 hr, read-out: Mean Retina Concentration) of the same molecule?
**A.** 39.4 ng/g

**Q.** And the concentration at 0 h (male, Dutch Belted, rabbit, retina, po, DB rabbit, 50 mg/kg BID oral, Day 15, 0 h, read-out: Mean retina concentration)?
**A.** 159 ng/g

**Q.** And the concentration at 1 h (male, Dutch Belted, rabbit, retina, po, DB rabbit, 50 mg/kg BID oral, Day 15, 1 h, read-out: Mean retina concentration)?
**A.** 2120 ng/g

**Q.** What about the concentration at 6 h (male, Dutch Belted, rabbit, retina, po, DB rabbit, 50 mg/kg BID oral, Day 15, 6 h, read-out: Mean retina concentration) of the same molecule?
**A.** 725 ng/g

**Q.** What about the concentration at 24 h (male, Dutch Belted, rabbit, retina, po, DB rabbit, 50 mg/kg BID oral, Day 15, 24 h, read-out: Mean retina concentration) of the same molecule?
**A.** 265 ng/g

**Q.** What about the concentration at 96 h (male, Dutch Belted, rabbit, retina, po, DB rabbit, 50 mg/kg BID oral, Day 15, 96 h, read-out: Mean retina concentration) of the same molecule?
**A.** 32.3 ng/g

**Q.** And the concentration at 168 h (male, Dutch Belted, rabbit, retina, po, DB rabbit, 50 mg/kg BID oral, Day 15, 168 h, read-out: Mean retina concentration)?
**A.** 54.9 ng/g

**Q.** What about the concentration at 240 h (male, Dutch Belted, rabbit, retina, po, DB rabbit, 50 mg/kg BID oral, Day 15, 240 h, read-out: Mean retina concentration) of the same molecule?
**A.** 39.3 ng/g

**Q.** And the concentration at 0 h (male, Dutch Belted, rabbit, vitreous humor, po, DB rabbit, 50 mg/kg BID oral, Day 15, 0 h, read-out: Vitreous concentration)?
**A.** 2.91 ng/g

**Q.** What about the concentration at 1 h (male, Dutch Belted, rabbit, vitreous humor, po, DB rabbit, 50 mg/kg BID oral, Day 15, 1 h, read-out: Vitreous concentration) of the same molecule?
**A.** 49.2 ng/g

**Q.** And the concentration at 6 h (male, Dutch Belted, rabbit, vitreous humor, po, DB rabbit, 50 mg/kg BID oral, Day 15, 6 h, read-out: Vitreous concentration)?
**A.** 28.7 ng/g

**Q.** And the concentration at 24 h (male, Dutch Belted, rabbit, vitreous humor, po, DB rabbit, 50 mg/kg BID oral, Day 15, 24 h, read-out: Vitreous concentration)?
**A.** 2.9 ng/g

**Q.** What about the Tlast (plasma, DB rabbit, 50 mg/kg BID, Day 15) of the same molecule?
**A.** 24 h

**Q.** What about the “C-RPE drug concentration at least 10 days following the last oral administration” value (rabbit, 50 mg/kg BID) of the same molecule?
**A.** 196 ng/mL
